Measured values: the supplement of paper PMC11061612

Columns and labels:
Gefitinib = compound: COc1cc2ncnc(Nc3ccc(F)c(Cl)c3)c2cc1OCCCN1CCOCC1 [Gefitinib]; details: max 10 µM
Outline: (§1)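 Plates with 1536 wells received cancer cell lines in 7.5 μl of DMEM/F12 or RPMI containing 10% FBS. After 24 hours at 37°C and 5% CO2, cells were dosed for 72 hours with final DMSO typically 0.2%, and viability was read by CellTiter-Glo 2.0 luminescence scaled between blank-well and DMSO-well means. The single-agent IC50 was taken from a logistic fit of the dose responses made with a non-linear mixed effects model, that logistic curve having two parameters.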

Palbociclib = compound: CC(=O)c1c(C)c2cnc(Nc3ccc(N4CCNCC4)cn3)nc2n(C2CCCC2)c1=O [Palbociclib]; details: max 10 µM
Outline: as §1

Trametinib = compound: CC(=O)Nc1cccc(-n2c(=O)n(C3CC3)c(=O)c3c(Nc4ccc(I)cc4F)n(C)c(=O)c(C)c32)c1 [Trametinib]; details: max 1 µM
Outline: as §1

AZD6738 = compound: C[C@@H]1COCCN1C2=NC(=NC(=C2)C3(CC3)[S@](=N)(=O)C)C4=C5C=CNC5=NC=C4 [AZD6738]; details: max 10 µM
Outline: as §1

AZD1390 = compound: CC(C)n1c(=O)n(C)c2cnc3cc(F)c(-c4ccc(OCCCN5CCCCC5)nc4)cc3c21 [AZD1390]; details: max 0.3 µM
Outline: as §1

Gemcitabine = compound: Nc1ccn([C@@H]2O[C@H](CO)[C@@H](O)C2(F)F)c(=O)n1 [Gemcitabine]; details: max 0.3 µM
Outline: as §1

AZD8186 = compound: C[C@@H](Nc1cc(F)cc(F)c1)c1cc(C(=O)N(C)C)cc2c(=O)cc(N3CCOCC3)oc12 [AZD8186]; details: max 10 µM
Outline: as §1

Doxorubicin = compound: COc1cccc2c1C(=O)c1c(O)c3c(c(O)c1C2=O)C[C@@](O)(C(=O)CO)C[C@@H]3O[C@H]1C[C@H](N)[C@H](O)[C@H](C)O1 [Doxorubicin]; details: max 1 µM
Outline: as §1

Etoposide = compound: COc1cc([C@@H]2c3cc4c(cc3[C@@H](O[C@@H]3O[C@@H]5CO[C@@H](C)O[C@H]5[C@H](O)[C@H]3O)[C@H]3COC(=O)[C@H]23)OCO4)cc(OC)c1O [Etoposide]; details: max 10 µM
Outline: as §1

Alisertib = compound: COc1cc(Nc2ncc3c(n2)-c2ccc(Cl)cc2C(c2c(F)cccc2OC)=NC3)ccc1C(=O)O [Alisertib]; details: max 10 µM
Outline: as §1

AZD5991 = compound: Cc1c2c(nn1C)CSCc1cc(n(C)n1)CSc1cc(c3ccccc3c1)OCCCc1c(C(=O)O)n(C)c3c-2c(Cl)ccc13 [AZD5991]; details: max 1 µM
Outline: as §1

Selumetinib = compound: Cn1cnc2c(F)c(Nc3ccc(Br)cc3Cl)c(C(=O)NOCCO)cc21 [Selumetinib]; details: max 10 µM
Outline: as §1

AZD1775 = compound: C=CCn1c(=O)c2cnc(Nc3ccc(N4CCN(C)CC4)cc3)nc2n1-c1cccc(C(C)(C)O)n1 [AZD1775]; details: max 3 µM
Outline: as §1

Taselisib = compound: Cc1nc(-c2cn3c(n2)-c2ccc(-c4cnn(C(C)(C)C(N)=O)c4)cc2OCC3)n(C(C)C)n1 [Taselisib]; details: max 10 µM
Outline: as §1

Lapatinib = compound: CS(=O)(=O)CCNCc1ccc(-c2ccc3ncnc(Nc4ccc(OCc5cccc(F)c5)c(Cl)c4)c3c2)o1 [Lapatinib]; details: max 10 µM
Outline: as §1

AZD7648 = compound: Cc1cc2ncnn2cc1Nc1ncc2c(n1)n(C1CCOCC1)c(=O)n2C [AZD7648]; details: max 10 µM
Outline: as §1

MK-2206 = compound: NC1(c2ccc(-c3nc4ccn5c(=O)[nH]nc5c4cc3-c3ccccc3)cc2)CCC1 [MK-2206]; details: max 10 µM
Outline: as §1

Dasatinib = compound: CC1=C(C(=CC=C1)Cl)NC(=O)C2=CN=C(S2)NC3=CC(=NC(=N3)C)N4CCN(CC4)CCO [Dasatinib]; details: max 2 µM
Outline: as §1

SG3199 = compound: CC1=CN2[C@@H](C1)C=NC3=CC(=C(C=C3C2=O)OC)OCCCCCOC4=C(C=C5C(=C4)N=C[C@@H]6CC(=CN6C5=O)C)OC [SG3199]; details: max 0.001 µM
Outline: as §1

Carboplatin = compound: C1CC(C1)(C(=O)[O-])C(=O)[O-].N.N.[Pt+2] [Carboplatin]; details: max 10 µM
Outline: as §1

AZD5363 = compound: C1CN(CCC1(C(=O)N[C@@H](CCO)C2=CC=C(C=C2)Cl)N)C3=NC=NC4=C3C=CN4 [AZD5363]; details: max 10 µM
Outline: as §1

AZD5153 = compound: COc1nnc2ccc(N3CCC(c4ccc(OCCN5CCN(C)C(=O)[C@H]5C)cc4)CC3)nn12 [AZD5153]; details: max 1 µM
Outline: as §1

SN-38 = compound: CCc1c2c(nc3ccc(O)cc13)-c1cc3c(c(=O)n1C2)COC(=O)[C@]3(O)CC [SN-38]; details: max 0.3 µM
Outline: as §1

Prexasertib = compound: COc1cccc(OCCCN)c1-c1cc(Nc2cnc(C#N)cn2)n[nH]1 [Prexasertib]; details: max 1 µM
Outline: as §1

AZD0156 = compound: CN(C)CCCOc1ccc(-c2ccc3ncc4c(c3c2)n(C2CCOCC2)c(=O)n4C)cn1 [AZD0156]; details: max 3 µM
Outline: as §1

AZD2811 = compound: CCN(CCO)CCCOc1ccc2c(Nc3cc(CC(=O)Nc4cccc(F)c4)[nH]n3)ncnc2c1 [AZD2811]; details: max 1 µM
Outline: as §1

Venetoclax = compound: CC1(C)CCC(CN2CCN(c3ccc(C(=O)NS(=O)(=O)c4ccc(NCC5CCOCC5)c([N+](=O)[O-])c4)c(Oc4cnc5[nH]ccc5c4)c3)CC2)=C(c2ccc(Cl)cc2)C1 [Venetoclax]; details: max 1 µM
Outline: as §1

[1] = compound: O=C(Nc1ccc2[nH]nc(-c3ccncc3)c2c1)[C@@H]1CCN(CC(=O)N2CCN(c3ccc(-c4ncccn4)cc3)CC2)C1; details: max 5 µM
Outline: as §1

5-Fluorouracil = compound: O=c1[nH]cc(F)c(=O)[nH]1 [5-Fluorouracil]; details: max 20 µM
Outline: as §1

SRA737 = compound: N#Cc1cnc(Nc2cc(NC[C@H]3CNCCO3)c(C(F)(F)F)cn2)cn1 [SRA737]; details: max 10 µM
Outline: as §1

AZD4320 = compound: CN(CC[C@H](CSC1=CC=CC=C1)NC2=C(C=C(C=C2)S(=O)(=O)NC(=O)C3=CC=C(C=C3)N4CCC(CC4)[C@H](C5=CC=CC=C5C6=CC=C(C=C6)Cl)O)S(=O)(=O)C(F)(F)F)CCO [AZD4320]; details: max 1 µM
Outline: as §1

Crizotinib = compound: C[C@@H](Oc1cc(-c2cnn(C3CCNCC3)c2)cnc1N)c1c(Cl)ccc(F)c1Cl [Crizotinib]; details: max 10 µM
Outline: as §1

Olaparib = compound: O=C(c1cc(Cc2n[nH]c(=O)c3ccccc23)ccc1F)N1CCN(C(=O)C2CC2)CC1 [Olaparib]; details: max 10 µM
Outline: as §1

Savolitinib = compound: C[C@@H](c1ccc2nccn2c1)n1nnc2ncc(-c3cnn(C)c3)nc21 [Savolitinib]; details: max 1 µM
Outline: as §1

Paclitaxel = compound: CC(=O)O[C@H]1C(=O)[C@@]2(C)[C@H]([C@H](OC(=O)c3ccccc3)[C@]3(O)C[C@H](OC(=O)[C@H](O)[C@@H](NC(=O)c4ccccc4)c4ccccc4)C(C)=C1C3(C)C)[C@]1(OC(C)=O)CO[C@@H]1C[C@@H]2O [Paclitaxel]; details: max 3 µM
Outline: as §1

Row | Cell Line | IC50, cell viability 72 h (Gefitinib) | IC50, cell viability 72 h (Palbociclib) | IC50, cell viability 72 h (Trametinib) | IC50, cell viability 72 h (AZD6738) | IC50, cell viability 72 h (AZD1390) | IC50, cell viability 72 h (Gemcitabine) | IC50, cell viability 72 h (AZD8186) | IC50, cell viability 72 h (Doxorubicin) | IC50, cell viability 72 h (Etoposide) | IC50, cell viability 72 h (Alisertib) | IC50, cell viability 72 h (AZD5991) | IC50, cell viability 72 h (Selumetinib) | IC50, cell viability 72 h (AZD1775) | IC50, cell viability 72 h (Taselisib) | IC50, cell viability 72 h (Lapatinib) | IC50, cell viability 72 h (AZD7648) | IC50, cell viability 72 h (MK-2206) | IC50, cell viability 72 h (Dasatinib) | IC50, cell viability 72 h (SG3199) | IC50, cell viability 72 h (Carboplatin) | IC50, cell viability 72 h (AZD5363) | IC50, cell viability 72 h (AZD5153) | IC50, cell viability 72 h (SN-38) | IC50, cell viability 72 h (Prexasertib) | IC50, cell viability 72 h (AZD0156) | IC50, cell viability 72 h (AZD2811) | IC50, cell viability 72 h (Venetoclax) | IC50, cell viability 72 h [1] | IC50, cell viability 72 h (5-Fluorouracil) | IC50, cell viability 72 h (SRA737) | IC50, cell viability 72 h (AZD4320) | IC50, cell viability 72 h (Crizotinib) | IC50, cell viability 72 h (Olaparib) | IC50, cell viability 72 h (Savolitinib) | IC50, cell viability 72 h (Paclitaxel)
1 | NCI-H1435 (Non-Small Cell Lung Carcinoma) | > 10000 nM | > 10000 nM | > 1000 nM | > 10000 nM | > 300 nM | > 300 nM | > 10000 nM | > 1000 nM | > 10000 nM | > 10000 nM | > 1000 nM | > 10000 nM | > 3000 nM | > 10000 nM | > 10000 nM | > 10000 nM | > 10000 nM | > 2000 nM | > 1 nM | > 10000 nM | > 10000 nM | > 1000 nM | > 300 nM | > 1000 nM | > 3000 nM | > 1000 nM | > 1000 nM | > 5000 nM | > 20000 nM | > 10000 nM | 621 nM | > 10000 nM | > 10000 nM | > 1000 nM | > 3000 nM
2 | NCI-H1648 (Lung Adenocarcinoma) | 2340 nM | > 10000 nM | 28.9 nM | 4850 nM | > 300 nM | > 300 nM | > 10000 nM | > 1000 nM | > 10000 nM | 7890 nM | > 1000 nM | > 10000 nM | 1310 nM | 146 nM | 1990 nM | > 10000 nM | 9830 nM | 373 nM | > 1 nM | > 10000 nM | 9590 nM | 203 nM | 59.6 nM | 156 nM | > 3000 nM | > 1000 nM | > 1000 nM | > 5000 nM | > 20000 nM | > 10000 nM | > 1000 nM | 8990 nM | > 10000 nM | > 1000 nM | 12.4 nM
3 | NCI-H2009 (Lung Adenocarcinoma) | > 10000 nM | > 10000 nM | 407 nM | > 10000 nM | > 300 nM | > 300 nM | > 10000 nM | > 1000 nM | > 10000 nM | 8100 nM | > 1000 nM | > 10000 nM | 1020 nM | 6380 nM | > 10000 nM | > 10000 nM | > 10000 nM | > 2000 nM | > 1 nM | > 10000 nM | > 10000 nM | > 1000 nM | 190 nM | 846 nM | > 3000 nM | > 1000 nM | > 1000 nM | > 5000 nM | > 20000 nM | > 10000 nM | > 1000 nM | > 10000 nM | > 10000 nM | > 1000 nM | 162 nM
4 | NCI-H2023 (Non-Small Cell Lung Carcinoma) | > 10000 nM | > 10000 nM | > 1000 nM | 3500 nM | > 300 nM | 134 nM | > 10000 nM | 225 nM | > 10000 nM | > 10000 nM | > 1000 nM | > 10000 nM | 2020 nM | 3870 nM | > 10000 nM | > 10000 nM | > 10000 nM | > 2000 nM | > 1 nM | > 10000 nM | > 10000 nM | > 1000 nM | 110 nM | 30.6 nM | > 3000 nM | > 1000 nM | > 1000 nM | > 5000 nM | 11900 nM | > 10000 nM | > 1000 nM | > 10000 nM | > 10000 nM | > 1000 nM | 531 nM
5 | NCI-H2452 (Mesothelioma) | > 10000 nM | > 10000 nM | > 1000 nM | > 10000 nM | > 300 nM | > 300 nM | > 10000 nM | > 1000 nM | > 10000 nM | 8630 nM | > 1000 nM | > 10000 nM | 710 nM | > 10000 nM | > 10000 nM | > 10000 nM | > 10000 nM | 531 nM | > 1 nM | > 10000 nM | > 10000 nM | > 1000 nM | > 300 nM | 244 nM | > 3000 nM | > 1000 nM | > 1000 nM | > 5000 nM | > 20000 nM | > 10000 nM | > 1000 nM | > 10000 nM | > 10000 nM | > 1000 nM | 97 nM
